Test [1] deals with T1, Dual specificity mitogen-activated protein kinase kinase 7 (Homo sapiens, UniProt O14733).
T1 sequence (O14733 whole entry): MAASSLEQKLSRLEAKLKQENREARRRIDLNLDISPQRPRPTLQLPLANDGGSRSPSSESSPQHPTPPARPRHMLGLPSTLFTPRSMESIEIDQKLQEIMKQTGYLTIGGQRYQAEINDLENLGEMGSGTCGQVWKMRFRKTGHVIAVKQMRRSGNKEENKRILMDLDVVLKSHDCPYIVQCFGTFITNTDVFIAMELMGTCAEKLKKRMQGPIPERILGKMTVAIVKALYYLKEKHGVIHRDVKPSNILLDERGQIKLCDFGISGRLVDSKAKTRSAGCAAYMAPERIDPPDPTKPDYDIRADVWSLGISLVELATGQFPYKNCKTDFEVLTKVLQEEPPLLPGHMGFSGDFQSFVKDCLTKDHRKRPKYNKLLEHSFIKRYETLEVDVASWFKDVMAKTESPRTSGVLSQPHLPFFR
As to the kind of experiment: Inhibition of GST-tagged human MKK7 expressed in Escherichia coli (BL21(DE3) pLysS) co-expressing human MEKK catalytic domain using biotinylated and GST-tagged rat GST-KN-SAPKalpha substrate incubated for 1 hr by time-resolved fluorescence based assay.

Test [2] has as its system Mus musculus. The experiment in a line: Inhibition of anti-CD3 antibody-induced IL2 production in Balb/c mouse dosed intravenously 5 mins before anti-CD3 antibody injection and measured 2 hrs post-challenge by ELISA. The class given is functional, organism-based. In general terms: ELISA stands for enzyme-linked immunosorbent assay.
The test system of test [3] is Mus musculus. The experiment in a line: Inhibition of anti-CD3 antibody-induced IL4 production in Balb/c mouse dosed intravenously 5 mins before anti-CD3 antibody injection and measured 2 hrs post-challenge by ELISA. Format: functional, organism-based.
In test [4] the test system is Mus musculus. The experiment in a line: Inhibition of anti-CD3 antibody-induced IFNgamma production in Balb/c mouse dosed intravenously 5 mins before anti-CD3 antibody injection and measured 2 hrs post-challenge by ELISA. Format: functional, organism-based.
For test [5], the target named is T2, Dual specificity mitogen-activated protein kinase kinase 4 (Homo sapiens, UniProt P45985).
T2 sequence (P45985 whole entry): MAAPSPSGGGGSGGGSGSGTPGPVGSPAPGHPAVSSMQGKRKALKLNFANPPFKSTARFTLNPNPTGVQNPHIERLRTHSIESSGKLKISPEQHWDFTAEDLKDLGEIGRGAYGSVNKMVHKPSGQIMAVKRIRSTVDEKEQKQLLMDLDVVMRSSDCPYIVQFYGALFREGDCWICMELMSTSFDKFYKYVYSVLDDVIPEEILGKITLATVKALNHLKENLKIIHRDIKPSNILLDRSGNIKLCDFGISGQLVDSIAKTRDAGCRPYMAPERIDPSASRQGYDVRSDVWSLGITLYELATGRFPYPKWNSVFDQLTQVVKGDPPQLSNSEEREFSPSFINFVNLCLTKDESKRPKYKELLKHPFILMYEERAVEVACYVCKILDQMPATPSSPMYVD
The experiment in a line: Inhibition of GST-tagged human MKK4 expressed in Escherichia coli (BL21(DE3) pLysS) co-expressing human MEKK catalytic domain using biotinylated and GST-tagged rat GST-KN-SAPKalpha substrate incubated for 2 hrs by time-resolved fluorescence based assay.

Activity calls are given as the source filed them. How the calls were made is not given here. Where only a bound is given, the exact number is not on record here.

For `Cc1nc(N2CCCCC2)c2c(n1)[nH]c1ccc(C(=O)O)cc12`, the IC50 in test [1] and in test [5] was below 1 µM each time. Further, the inhibition entry with Mus musculus [2], in the test with Mus musculus [3] and in the test on Mus musculus [4] was “Active” throughout.

For the compound `Cc1nc(NC(C)CO)c2c(n1)[nH]c1ccc(O)cc12` (stereo not given), the IC50 in test [1] and in test [5] was below 1 µM in each case. Also, the inhibition result in the test on Mus musculus [2], with Mus musculus [3] and in the test with Mus musculus [4] was “Active” in each case.

In the case of `Cc1nc(N2CCCCC2)c2c(n1)[nH]c1ccc(C(N)=O)cc12`, the IC50 in test [1] and in test [5] was below 1 µM in each case. Further, the inhibition entry in the test with Mus musculus [2], in the test on Mus musculus [3] and in the test with Mus musculus [4] was “Active” each time.

On to `Nc1nc(N2CCCCCC2)c2c(n1)[nH]c1ccc(O)cc12`, for which the IC50 in test [1] and in test [5] was below 1 µM in each case. In addition, the inhibition result in the test on Mus musculus [2], with Mus musculus [3] and in the test with Mus musculus [4] was “Active” in each case.

These data come from ChEMBL document CHEMBL3714742, “Pyrimido (4,5-b) indole derivatives” (2003).
